Among the data in ChEMBL document CHEMBL1641528, “Reverse type I inhibitor of Mycobacterium tuberculosis CYP125A1” (Bioorg Med Chem Lett, 2011) are Kd values, retold here.

Broadly, the Kd is the equilibrium constant for the complex coming apart. A lower Kd goes with a tighter complex.

In this assay the target is Steroid C26-monooxygenase (Mycobacterium tuberculosis, UniProt P9WPP1, C429L). As to the kind of experiment: Binding affinity to Mycobacterium tuberculosis H37Rv CYP125A1 C429L mutant expressed in Escherichia coli by titration plot analysis.

`CC1CCC(C(=O)NC(Cc2c[nH]c3ccccc23)C(=O)Nc2ccncc2)CC1` (stereo unspecified) had a Kd of 1680 nM. This counts as single-digit micromolar.
